Columns and labels:
Sporothrix schenkii = test: Antifungal activity in vitro, resazurin growth inhibition: Sporothrix schenkii (B62482); format: cell-based; details: for IC50: read-out: Inf. A: Sporothrix schenkii B62482, pIC50 (converted)
Method in brief: (§1)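 Resazurin conversion to fluorescent resorufin (ex 550/em 590 nm) served as the growth readout. Compounds spanned 2- or 4-fold serial dilutions with 64 μM top in-test concentration; inoculum 10^3 cfu per well in MOPS-buffered RPMI-1640 (pH 7.0, 2% glucose). Incubation species-dependent, dermatophytes at 27° C. for ≥1 week.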

Trichophyton rubrum = test: Antifungal activity in vitro, resazurin growth inhibition: Trichophyton rubrum (B68183); format: cell-based; details: for IC50: read-out: Inf. C: Trichophyton rubrum B68183, pIC50 (converted)
Method in brief: as §1

Rhizopus oryzae = test: Antifungal activity in vitro, resazurin growth inhibition: Rhizopus oryzae (IHEM5223); format: cell-based; details: for IC50: Rhizopus arrhizus, read-out: Inf. J: Rhizopus oryzae IHEM5223, pIC50 (converted)
Method in brief: as §1

Scedosporium apiospermum = test: Antifungal activity in vitro, resazurin growth inhibition: Scedosporium apiospermum (IHEM3817); format: cell-based; details: for IC50: read-out: Inf. H: Scedosporium apiospermum IHEM3817, pIC50 (converted)
Method in brief: as §1

Cryptococcus neoformans = test: Antifungal activity in vitro, resazurin growth inhibition: Cryptococcus neoformans (B66663); format: cell-based; details: for IC50: read-out: Inf. F: Cryptococcus neoformans B66663, pIC50 (converted)
Method in brief: as §1

Scedosporium prolificans = test: Antifungal activity in vitro, resazurin growth inhibition: Scedosporium prolificans (IHEM21157); format: cell-based; details: for IC50: Lomentospora prolificans, read-out: Inf. I: Scedosporium prolificans IHEM21157, pIC50 (converted)
Method in brief: as §1

Rhizomucor miehei = test: Antifungal activity in vitro, resazurin growth inhibition: Rhizomucor miehei (IHEM13391); format: cell-based; details: for IC50: read-out: Inf. K: Rhizomucor miehei IHEM13391, pIC50 (converted)
Method in brief: as §1

Aspergillus fumigatus = test: Antifungal activity in vitro, resazurin growth inhibition: Aspergillus fumigatus (B42928); format: cell-based; details: for IC50: read-out: Inf. E: Aspergillus fumigatus B42928, pIC50 (converted)
Method in brief: as §1

Microsporum canis = test: Antifungal activity in vitro, resazurin growth inhibition: Microsporum canis (B68128); format: cell-based; details: for IC50: read-out: Inf. B: Microsporum canis B68128, pIC50 (converted)
Method in brief: as §1

Candida parapsilosis = test: Antifungal activity in vitro, resazurin growth inhibition: Candida parapsilosis (B66126); format: cell-based; details: for IC50: Lodderomyces parapsilosis, read-out: Inf. D: Candida parapsilosis B66126, pIC50 (converted)
Method in brief: as §1

[1] = system: Trichophyton mentagrophytes; test: Antifungal activity in vitro, resazurin growth inhibition: Trichophyton mentagrophytes (B70554); format: cell-based; details: for IC50: read-out: Inf. G: Trichophyton mentagrophytes B70554, pIC50 (converted)
Method in brief: as §1

IC50 (Sporothrix schenkii)	IC50 (Trichophyton rubrum)	IC50 (Rhizopus oryzae)	IC50 (Scedosporium apiospermum)	IC50 (Cryptococcus neoformans)	IC50 (Scedosporium prolificans)	IC50 (Rhizomucor miehei)	IC50 (Aspergillus fumigatus)	melting point	IC50 (Microsporum canis)	IC50 (Candida parapsilosis)	IC50 [1]	Inf. A: Sporothrix schenkii B62482, pIC50 (Sporothrix schenkii)	Inf. C: Trichophyton rubrum B68183, pIC50 (Trichophyton rubrum)	Inf. J: Rhizopus oryzae IHEM5223, pIC50 (Rhizopus oryzae)	Inf. H: Scedosporium apiospermum IHEM3817, pIC50 (Scedosporium apiospermum)	Inf. F: Cryptococcus neoformans B66663, pIC50 (Cryptococcus neoformans)	Inf. I: Scedosporium prolificans IHEM21157, pIC50 (Scedosporium prolificans)	Inf. K: Rhizomucor miehei IHEM13391, pIC50 (Rhizomucor miehei)	Inf. E: Aspergillus fumigatus B42928, pIC50 (Aspergillus fumigatus)	SMILES	other results
> 64.6 µM	42.7 nM	> 64.6 µM	2.14 µM	> 64.6 µM	3020 nM	> 64.6 µM	1350 nM	158.2 to 160.6 °C	126 nM	> 64.6 µM	229 nM	–	–	–	–	–	–	–	–	FC(F)(F)c1cc(C2=NCc3c(Cl)cccc3-n3cccc32)ccn1 [Compound 3]	–
0.661 µM	69.2 nM	> 64.6 µM	6.03 µM	3.55 µM	309 nM	7.94 µM	2690 nM	159.9 to 160.8 °C	316 nM	> 64.6 µM	107 nM	–	–	–	–	–	–	–	–	Clc1cccc2c1-n1cccc1C(c1cc3ccccc3o1)=NC2 [Compound 5]	–
2.75 µM	64.6 nM	> 64.6 µM	0.513 µM	0.759 µM	214 nM	7.08 µM	302 nM	175.2 to 177.3 °C	174 nM	9.77 µM	245 nM	–	–	–	–	–	–	–	–	Cc1cccc2cc(C3=NCc4c(Cl)cccc4-n4cccc43)oc12 [Compound 7]	–
14.1 µM	38.9 nM	> 15.8 µM	10.2 µM	4.27 µM	437 nM	44.7 µM	490 nM	163.9 to 164.1 °C	427 nM	0.794 µM	178 nM	–	–	–	–	–	–	–	–	Clc1cccc2c1CN=C(c1ccc3occc3c1)c1cccn1-2 [Compound 8]	–
–	–	–	–	–	–	–	–	–	–	–	–	5.15	6.34	<4.19	4.78	5.69	5.40	4.35	5.63	Clc1cccc2c1-n1cccc1C(c1ccc3ncsc3c1)=NC2 [Compound 186]	Inf. B: Microsporum canis B68128, pIC50 (Microsporum canis): 5.95; Inf. D: Candida parapsilosis B66126, pIC50 (Candida parapsilosis): <4.19; Inf. G: Trichophyton mentagrophytes B70554, pIC50 [1]: 6.06
–	–	–	–	–	–	–	–	–	–	–	–	5.09	6.77	<4.19	5.79	5.46	6.92	<4.19	5.98	Clc1cc(Cl)c2c(c1)-n1cccc1C(c1ccc3ncsc3c1)=NC2 [Compound 187]	Inf. B: Microsporum canis B68128, pIC50 (Microsporum canis): 5.68; Inf. D: Candida parapsilosis B66126, pIC50 (Candida parapsilosis): 4.50; Inf. G: Trichophyton mentagrophytes B70554, pIC50 [1]: 6.22
–	–	–	–	–	–	–	–	–	–	–	–	<4.19	6.64	<4.19	6.29	4.98	6.24	4.42	5.56	Clc1cccc2c1CN=C(c1ccc3scnc3c1)c1cccn1-2 [Compound 188]	Inf. B: Microsporum canis B68128, pIC50 (Microsporum canis): 6.20; Inf. D: Candida parapsilosis B66126, pIC50 (Candida parapsilosis): 4.90; Inf. G: Trichophyton mentagrophytes B70554, pIC50 [1]: 6.05
–	–	–	–	–	–	–	–	–	–	–	–	4.75	6.18	<4.19	4.88	5.00	6.35	<4.19	5.42	Cc1nc2cc(C3=NCc4c(Cl)cccc4-n4cccc43)ccc2s1 [Compound 191]	Inf. B: Microsporum canis B68128, pIC50 (Microsporum canis): 5.69; Inf. D: Candida parapsilosis B66126, pIC50 (Candida parapsilosis): <4.19; Inf. G: Trichophyton mentagrophytes B70554, pIC50 [1]: 5.80
–	–	–	–	–	–	–	–	–	–	–	–	5.00	6.77	<4.19	4.35	5.84	5.72	<4.19	5.65	Cn1ccc2ccc(C3=NCc4c(Cl)cccc4-n4cccc43)cc21 [Compound 196]	Inf. B: Microsporum canis B68128, pIC50 (Microsporum canis): 6.36; Inf. D: Candida parapsilosis B66126, pIC50 (Candida parapsilosis): 5.25; Inf. G: Trichophyton mentagrophytes B70554, pIC50 [1]: 6.17

SMILES	IC50 (Sporothrix schenkii)	IC50 (Trichophyton rubrum)	IC50 (Rhizopus oryzae)	IC50 (Scedosporium apiospermum)	IC50 (Cryptococcus neoformans)	IC50 (Scedosporium prolificans)	IC50 (Rhizomucor miehei)	IC50 (Aspergillus fumigatus)	melting point	IC50 (Microsporum canis)	IC50 (Candida parapsilosis)	IC50 [1]	Inf. A: Sporothrix schenkii B62482, pIC50 (Sporothrix schenkii)	Inf. C: Trichophyton rubrum B68183, pIC50 (Trichophyton rubrum)	Inf. J: Rhizopus oryzae IHEM5223, pIC50 (Rhizopus oryzae)	Inf. H: Scedosporium apiospermum IHEM3817, pIC50 (Scedosporium apiospermum)	Inf. F: Cryptococcus neoformans B66663, pIC50 (Cryptococcus neoformans)	Inf. I: Scedosporium prolificans IHEM21157, pIC50 (Scedosporium prolificans)	Inf. K: Rhizomucor miehei IHEM13391, pIC50 (Rhizomucor miehei)	Inf. E: Aspergillus fumigatus B42928, pIC50 (Aspergillus fumigatus)	other results
Cc1cccc2c1CNC(c1cc3ccccc3s1)c1cccn1-2.Cl (stereo not shown) [Compound 1]	3.02 µM	67.6 nM	> 64.6 µM	> 64.6 µM	> 64.6 µM	1820 nM	> 64.6 µM	2000 nM	242.4 to 247.7 °C	447 nM	45.7 µM	204 nM	–	–	–	–	–	–	–	–	–
